A short description of data set [1]: Pharmacokinetics of D3-creatine in plasma after a single oral tracer dose. The data set is classed as in vivo, human. The note with it: healthy subjects. The procedure: Subjects were housed on the in-patient unit for the full 5 day study. Subjects were admitted on Day-1, for baseline evaluation and acclimation.
(§1) In the older subjects, sampling was extended to 72 hr (24, 36, 48, and 72 hr). Urine was collected continuously beginning at baseline, day −1, through day 5 of the study in timed intervals. On Day −1, subjects entered the clinic prior to noon, and timed urine collections began at 12:00 PM with 12:00 PM being time 0 (0-4, 4-8, 8-12, 12-20 h), and completed at 8:00 AM the next day, Day 1.
(§2) Total body creatine pool size and muscle mass were calculated from D3-creatinine enrichment in urine. Total body muscle mass was measured by MRI (serial cross sections), and total lean body mass (LBM) and appendicular lean mass (ALM) were measured by DXA during the subjects' stay on the inpatient unit.

Data set [2] is described as follows: Urinary excretion and renal clearance of the D3-creatine tracer dose. Format: in vivo, human. The procedure:
as §1, §2
The data were analyzed in SAS v9.2 (SAS Institute, Cary, N.C.) and graphs were produced in either SAS or TSCG. […] There were no adjustments for multiplicity.

For data set [3] the following is noted: in vivo, po.
Description: Enrichment of D3-creatinine in urine to total creatinine in urine was determined for each urine collection interval. Achievement of steady-state enrichment was determined by a combination of visual inspection and linear regression. […] Linear regression of the enrichment ratio on time (midpoint of the urine collection interval) was performed for each subject separately. […] The earliest time point included in the final regression was defined as the time to achievement of steady-state.

On to `[2H]C([2H])([2H])N(CC(=O)O)C(=N)N` [D3-creatine], for which, in data set [1] (single oral tracer dose 30-100 mg, within 24 h), the cleared from plasma is recorded as around 80%. For the same molecule, the “cleared from plasma by 72 h” value in data set [1] (single oral tracer dose, by 72 h) is recorded as “essentially cleared”. For the same molecule, in data set [2] (range across subjects, single oral dose 30-100 mg), the “% of D3-creatine recovered in urine over 120 h” value was 0.1 to 34%.

With D3-creatinine, in data set [2] (human, in vivo), the renal clearance was in the range of 0.26 to 56 mL/min and the “renal clearance as % of the dose” value is given as 0.1% to 34. Also, the “time to achievement of steady-state enrichment in urine” value in data set [3] was found to be 30.7 h.

For the origin of these results see patent publication US20160139154A1, “METHODS FOR DETERMINING TOTAL BODY SKELETAL MUSCLE MASS” (THE REGENTS OF THE UNIVERSITY OF CALIFORNIA, priority 2013, published 2016).
